This is an account of results in ChEMBL document CHEMBL3603786, “The 2',4'-dihydroxychalcone could be explored to develop new inhibitors against the glycerol-3-phosphate dehydrogenase from Leishmania species” (Bioorg Med Chem Lett, 2015).

The structures appear in SMILES notation.

Usually IC50 stands for the concentration that gives 50% inhibition. A high value points to weaker potency. The CC50 is the concentration at which the toxic effect on the cells reaches its halfway point. Higher therefore signals better tolerance by the cells.

The subject of data set [1] is Leishmania amazonensis. In words: Antileishmanial activity against promastigotes of Leishmania amazonensis MPRO/BR/1972/M1841-LV-79 after 72 hrs by MTT assay. To be noted: MPRO/BR/1972/M1841-LV-79, 72 h. It counts as functional, organism-based. A general note: Formazan colour is commonly taken as a measure of viable cells.
Data set [2] can be described thus: Cytotoxicity against Swiss albino mouse peritoneal macrophages after 24 hrs by MTT assay. The format is cell-based, Peritoneal macrophage cell.
The nature of data set [3]: Selectivity index, ratio of CC50 for Swiss albino mouse peritoneal macrophages to IC50 for promastigotes of Leishmania amazonensis MPRO/BR/1972/M1841-LV-79. The format is functional.
Data set [4] has as its system Leishmania amazonensis. Put plainly: Ratio of pentamidine IC50 to compound IC50 for Leishmania amazonensis MPRO/BR/1972/M1841-LV-79. The format is functional.

On to `O=C(/C=C/c1ccccc1)c1ccc(O)cc1O` [2',4'-DIHYDROXYCHALCONE], for which the half-inhibitory concentration (IC50) in the data set with Leishmania amazonensis [1] worked out at 0.4 µM. Moreover, the CC50 at 24 h in data set [2] is 417 µM. In addition, the “Ratio CC50/IC50” value in data set [3] is 1041.7. For the same compound, the “Ratio IC50” value with Leishmania amazonensis [4] turned out to be 16.
As to `N=C(N)c1ccc(OCCCCCOc2ccc(C(=N)N)cc2)cc1` [PENTAMIDINE], in the data set on Leishmania amazonensis [1], the IC50 stood at 6.7 µM. The CC50 at 24 h in data set [2] was determined as 35.7 µM. In addition, in data set [3], the “Ratio CC50/IC50” value is 5.3.
